Experimental data published in PubChem BioAssay (NCI).
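Cells were grown in 96-well plates and exposed to each compound for 48 hours at five concentrations; endpoints were interpolated linearly between bracketing concentrations, or set to the highest concentration if not reached. GI50: concentration for 50% inhibition of growth. TGI: concentration producing complete growth inhibition.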

Key:
Experiment in all cases: growth of human tumour cells (NCI), 48 h
MOLT-4 leukemia = tested on: MOLT-4 leukemia
SK-OV-3 ovarian = tested on: SK-OV-3 ovarian
MDA-MB-231 breast = tested on: MDA-MB-231 breast
HS 578T breast = tested on: HS 578T breast
HCT-15 colon = tested on: HCT-15 colon
HL-60(TB) leukemia = tested on: HL-60(TB) leukemia
HCT-116 colon = tested on: HCT-116 colon
NCI/ADR-RES ovarian = tested on: NCI/ADR-RES ovarian
TK-10 renal = tested on: TK-10 renal
SF-295 CNS = tested on: SF-295 CNS

Compound	GI50 (MOLT-4 leukemia) [µM]	TGI (MOLT-4 leukemia) [µM]	GI50 (SK-OV-3 ovarian) [µM]	TGI (SK-OV-3 ovarian) [µM]	GI50 (MDA-MB-231 breast) [µM]	TGI (MDA-MB-231 breast) [µM]	GI50 (HS 578T breast) [µM]	TGI (HS 578T breast) [µM]	GI50 (HCT-15 colon) [µM]	TGI (HCT-15 colon) [µM]	GI50 (HL-60(TB) leukemia) [µM]	TGI (HL-60(TB) leukemia) [µM]	GI50 (HCT-116 colon) [µM]	TGI (HCT-116 colon) [µM]	GI50 (NCI/ADR-RES ovarian) [µM]	TGI (NCI/ADR-RES ovarian) [µM]	GI50 (TK-10 renal) [µM]	TGI (TK-10 renal) [µM]	GI50 (SF-295 CNS) [µM]	TGI (SF-295 CNS) [µM]
COc1cc(F)ccc1-c1ncnc(Nc2cccc(CS(C)(=N)=O)c2)n1 (stereo unspecified)	2.01	7.06	2.9	> 100	1.74	> 100	1.21	23.9	0.495	> 100	0.392	3.14	0.421	> 100	3.19	> 100				
CCn1c2ccccc2c2cc(NC(=O)Nc3ccc([N+](=O)[O-])cc3C)ccc21	1.29	3.85	18.1	> 100	3.66	24.6	2.2	8	2.29	37.3	1.06	5.85	3.17	17.4	4.65	> 100	3.62	15.3	2.29	9.13
Cn1cc(C2=C(c3cn(CCCCO)c4ccccc34)C(=O)NC2=O)c2ccccc21	7.68	> 22	8.23	> 25	17.2	> 25	4.87	> 25	7.72	> 25	6.71	16.3	7.63	> 25	11.2	> 25	10.1	> 25	5.9	> 25
Cn1cc(NC(=O)Nc2cc(C(=O)Nc3cc(C(=O)Nc4ccc(S(=O)(=O)O)c5cc(S(=O)(=O)O)ccc45)n(C)c3)n(C)c2)cc1C(=O)Nc1cc(C(=O)Nc2ccc(S(=O)(=O)O)c3cc(S(=O)(=O)O)ccc23)n(C)c1		> 100		> 100		> 100		> 100		> 100		> 100		> 100		> 100		> 100		> 100
O=C(c1ccccc1Br)C(F)(F)F		> 100		> 100		> 100		> 100		> 100		> 100		> 100		> 100		> 100		> 100
